Data as given in PMC9854762, “Antibiofilm and Anti-Quorum-Sensing Activities of Novel Pyrazole and Pyrazolo[1,5-a]pyrimidine Derivatives as Carbonic Anhydrase I and II Inhibitors: Design, Synthesis, Radiosterilization, and Molecular Docking Studies” (Antibiotics, 2023).
≈ marks a conversion by molar mass, not a printed value. Where “and” joins values, the source holds several entries; their conditions need not be identical. Equal values may be shown once.

Key:
C. violaceum CV026 = assay: Quorum-sensing inhibition bioassay on Soft Top agar; type: cell-based, Chromobacterium violaceum; conditions: CV026 biosensor strain, sub-MIC
Experimental: (§1) The anti-QS potential of the tested compounds was explored as described. Briefly, an overnight bacterial suspension of the indicator organism C. violaceum CV026 was prepared in a concentration of 10^6 CFU/mL, and an aliquot of 200 µL was seeded in 5 mm of Soft Top agar (1.3 g agar, 2.0 g tryptone, 1.0 g NaCl, and 200 mL deionized water), supplemented with 20 µL of 0.25 µg/mL C6-HSL (N-hexanoyl-L-homoserine lactone), added as an exogenous AHL source. Wells were cut in the center of the plate after incubation for 30 min and then filled with 50 µL of sub-MICs of each most-active pyrazole hybrid. DMSO was used as a negative control. The plates were incubated at 28 °C for 48 h. Inhibition of violacein production by the indicator strain around the well, indicated by the presence of a white circle surrounded by a purple halo, was considered as positive for QS interference. For further investigation to determine the anti-QS activity for the pyrazole against the biofilm-forming bacterial isolates, an in vitro screening was performed. This was carried out by inoculation of 200 µL from an O/N CV026 culture onto plates of Soft Top agar. Wells of 8 mm diameter were separately made and filled with 90 µL of each biofilm-forming bacterial isolate (10^6 CFU/mL), plus 10 µL of each active pyrazole derivative (sub-MICs). Wells containing the bacterial isolates without treatment were used as controls. The signal diffusion zone diameter produced during the bacterial growth was measured in the presence of pyrazole and pyrazolo[1,5-a]pyrimidine derivatives and compared with the zone diameter of the violacein production by CV026.

hCA-I = target: T1, hCA-I (Homo sapiens, UniProt P00915); assay: Carbonic anhydrase isoenzyme inhibition assay; type: biochemical; conditions: for Ki: Lineweaver–Burk graphs
T1 construct: from tissue; host or cells: human erythrocytes (hemolysate)
T1 sequence (P00915 whole entry): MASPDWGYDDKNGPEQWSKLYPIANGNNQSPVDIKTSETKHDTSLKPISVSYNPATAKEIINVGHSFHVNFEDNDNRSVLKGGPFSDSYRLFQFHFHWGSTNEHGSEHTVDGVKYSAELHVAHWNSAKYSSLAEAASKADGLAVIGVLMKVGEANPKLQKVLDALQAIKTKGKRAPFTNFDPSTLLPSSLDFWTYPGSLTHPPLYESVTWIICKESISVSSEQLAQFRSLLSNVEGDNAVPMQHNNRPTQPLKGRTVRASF
Experimental: (§2) The purification of both human cytosolic CA isoforms was carried out as previously described, using a simple one-step procedure of Sepharose-4B-L-tyrosine-sulfanilamide affinity chromatography. […] The carbonic anhydrase isoenzymes’ activities were determined in accordance with the previous study. […] For the designation of the inhibition efficacy of each novel pyrazole and for the pyrazolo[1,5-a]pyrimidine derivatives on both hCA isoenzymes, an activity (%) graph was drawn. The IC50 values were obtained from activity (%) versus compounds plots. The Ki values were calculated using three concentrations for each derivative.

hCA-II = target: T2, hCA-II (Homo sapiens, UniProt P00918); assay: Carbonic anhydrase isoenzyme inhibition assay; type: biochemical; conditions: for Ki: Lineweaver–Burk graphs
T2 construct: from tissue; host or cells: human erythrocytes (hemolysate)
Experimental: as §2

S. pyogenes DH-3467 = assay: Broth microdilution MIC/MBC; type: cell-based, Streptococcus pyogenes; conditions: for MIC: Streptococcus pyogenes, DH3467, 24 h, read-out: MIC (Mean ± SEM); for MBC/MIC: value in brackets
Experimental: (§3) The broth microdilution method was taken as a basis to detect the MICs of pyrazole compounds against tested clinical isolates, according to the Clinical Laboratory and Standards Institute guidelines. The broth cultures were used to prepare the bacterial inoculums, and the suspensions were adjusted to the standard 0.5 McFarland turbidity. Stock solutions of the synthesized pyrazoles were prepared in pure DMSO and further serially diluted with TS broth in the concentration range from 128 µg/mL to 0.0625 µg/mL. A well containing noninoculated TS broth, free of any antimicrobial agents, was also included to ensure the medium sterility, while Erythromycin and Amikacin served as positive controls. Bacterial growth was determined by adding 20 µL of 0.5% TTC (2,3,5-triphenyltetrazolium chloride) aqueous solution. […] All experiments were repeated three times. The bactericidal effect from each concentration of the pyrazole and pyrazolo[1,5-a]pyrimidine derivatives showing growth inhibition was further studied. For this study, a loopful of 5 µL was taken from each no-visible growth tube and streaked onto plates of TS agar.

E. faecalis DH-5478 = assay: Broth microdilution MIC/MBC; type: cell-based, Enterococcus faecalis; conditions: for MIC: Enterococcus faecalis, DH5478, 24 h, read-out: MIC (Mean ± SEM); for MBC/MIC: value in brackets
Experimental: as §3

S. aureus DH-432 = assay: Broth microdilution MIC/MBC; type: cell-based, Staphylococcus aureus; conditions: for MIC: Staphylococcus aureus, DH432, 24 h, read-out: MIC (Mean ± SEM); for MBC/MIC: value in brackets
Experimental: as §3

P. aeruginosa biofilm = assay: Crystal violet biofilm inhibition assay; type: cell-based; conditions: compounds at their MICs, crystal violet OD570
Experimental: (§4) The microtiter plate method was used to evaluate the active pyrazoles’ inhibitory activities on the strong biofilm-forming bacterial strains. This method was carried out as described, with some modifications. The antibiofilm effects of tested pyrazoles are presented as a percentage change from untreated bacterial controls. Overnight cultures of micro-organisms in the TSB medium with 10% (wt/vol) glucose were prepared as 10^8 CFU/mL, and then 100 µL was dispensed into each test well. Then, 100 µL of different concentrations of compounds, at their MICs, were dispensed into each well. The negative control contained only TSB, whereas the positive control contained cell cultures without compound addition. The supernatant was decanted and each well gently rinsed three times with 300 µL of sterile distilled water and discarded after incubation at 37 °C for 48 h. The plates were dried with air for 40 min. They were stained with 0.1% (wt/vol) crystal violet at room temperature for 30 min and washed three times with sterile distilled water. Afterward, the crystal violet was solubilized in 95% ethanol, and the absorbance was read in a microplate reader (MicroplatePhotometer and Multiskan FC) at 570 nm. This test was performed in triplicate, and the mean was taken as an average of three readings. The percentage of biofilm inhibition was calculated according to Equation (1):(1) Biofilm eradication %=OD positivecontrol−OD sample /OD positive control×100

P. aeruginosa DH-5698 = assay: Broth microdilution MIC/MBC; type: cell-based, Pseudomonus aeruginosa; conditions: for MIC: Pseudomonas aeruginosa, DH5698, 24 h, read-out: MIC (Mean ± SEM); for MBC/MIC: value in brackets
Experimental: as §3

P. aeruginosa = assay: Anti-QS activity via signal inhibition, CV026 as indicator; type: cell-based; conditions: P. aeruginosa 10^6 CFU/mL; sub-MICs; control 11.2 mm
Experimental: as §1

S. aureus = assay: as above; type: cell-based; conditions: S. aureus 10^6 CFU/mL; sub-MICs; control 12.0 mm
Experimental: as §1

E. coli DH-5987 = assay: Broth microdilution MIC/MBC; type: cell-based, Escherichia coli; conditions: for MBC/MIC / MIC / MIC (Mean ± SEM): E. coli DH-5987; for MBC/MIC: value in brackets; for MIC / MBC: Escherichia coli, DH5987; for MIC / MIC (Mean ± SEM): 24 h; for MIC: read-out: MIC (Mean ± SEM); for MBC: E. coli
Experimental: as §3

A. baumannii DH-243 = assay: Broth microdilution MIC/MBC; type: cell-based, Acinetobacter baumannii; conditions: for MIC: Acinetobacter baumannii, DH243, 24 h, read-out: MIC (Mean ± SEM); for MBC/MIC: value in brackets
Experimental: as §3

S. aureus biofilm = assay: Crystal violet biofilm inhibition assay; type: cell-based; conditions: compounds at their MICs, crystal violet OD570
Experimental: as §4

## CCOC(=O)c1ccc(N=Nc2c(N)n[nH]c2N)cc1 [Compound 3a, Ethyl 4-((3,5-diamino-1H-pyrazol-4-yl)diazenyl)benzoate]
C. violaceum CV026
  Concentration at which anti-QS activity (visible halo zone) was observed: 0.0625 µg/mL
hCA-I
  IC50: 92.3 nM
  Ki: 88.8 nM
hCA-II
  IC50: 73.2 nM
  Ki: 91.8 nM
S. pyogenes DH-3467
  MIC: 0.125 ± 0.3 µg/mL (≈ 0.456 µM)
  MBC/MIC: 0.5
E. faecalis DH-5478
  MIC: 0.125 ± 0.1 µg/mL (≈ 0.456 µM)
  MBC/MIC: 0.5
S. aureus DH-432
  MIC: 0.125 ± 0.3 µg/mL (≈ 0.456 µM)
  MBC/MIC: 0.5
P. aeruginosa biofilm
  Biofilm Eradication %: 88% and > 80%
P. aeruginosa DH-5698
  MIC: 0.125 ± 0.2 µg/mL (≈ 0.456 µM)
  MBC/MIC: 0.5
P. aeruginosa
  QS signal diffusion zone: 7.8 mm
S. aureus
  QS signal diffusion zone: 5.0 mm
E. coli DH-5987
  MBC/MIC: 0.5
  MIC: 0.0625 ± 0.4 µg/mL (≈ 0.228 µM)
A. baumannii DH-243
  MIC: 0.25 ± 0.2 µg/mL (≈ 0.911 µM)
  MBC/MIC: 0.5

## CCOC(=O)c1ccc(N=Nc2c(N=Cc3ccc(N(C)C)cc3)n[nH]c2N)cc1 [Compound 5a, Ethyl 4-((5-amino-3-((4-(dimethylamino)benzylidene)amino)-1H-pyrazol-4-yl)diazenyl)benzoate]
C. violaceum CV026
  Concentration at which anti-QS activity (visible halo zone) was observed: 0.187 µg/mL
hCA-I
  IC50: 138 nM
  Ki: 176 nM
hCA-II
  IC50: 161 nM
  Ki: 144 nM
S. pyogenes DH-3467
  MIC: 0.5 ± 0.1 µg/mL (≈ 1.23 µM)
  MBC/MIC: 0.5
E. faecalis DH-5478
  MIC: 0.5 ± 0.2 µg/mL (≈ 1.23 µM)
  MBC/MIC: 0.5
S. aureus DH-432; 24 h
  MIC (Mean ± SEM): 0.25 ± 0.2 µg/mL (≈ 0.617 µM)
S. aureus DH-432
  MIC: 0.25 µg/mL (≈ 0.617 µM)
  MBC/MIC: 0.5
S. aureus biofilm
  Biofilm Eradication %: 69% and 69 ± 0.24%
P. aeruginosa biofilm
  Biofilm Eradication %: 63% and 63 ± 0.52%
P. aeruginosa DH-5698
  MIC: 0.5 ± 0.1 µg/mL (≈ 1.23 µM)
  MBC/MIC: 0.5
P. aeruginosa
  QS signal diffusion zone: 9.8 mm
S. aureus
  QS signal diffusion zone: 7.3 mm
E. coli DH-5987
  MBC/MIC: 0.5
  MIC: 0.25 µg/mL (≈ 0.617 µM)
A. baumannii DH-243
  MIC: 0.5 ± 0.3 µg/mL (≈ 1.23 µM)
  MBC/MIC: 0.5

## CCOC(=O)c1ccc(N=Nc2c(N)nn3c(C)cc(C)nc23)cc1 [Compound 6, ethyl-4-((2-amino-5,7-dimethylpyrazolo[1,5-a]pyrimidin-3-yl)diazenyl)benzoate]
C. violaceum CV026
  Concentration at which anti-QS activity (visible halo zone) was observed: 0.125 µg/mL
hCA-I
  IC50: 169 nM
  Ki: 153 nM
hCA-II
  IC50: 130 nM
  Ki: 146 nM
S. pyogenes DH-3467
  MIC: 0.25 ± 0.3 µg/mL (≈ 0.739 µM)
  MBC/MIC: 0.5
E. faecalis DH-5478
  MIC: 0.375 ± 0.2 µg/mL (≈ 1.11 µM)
  MBC/MIC: 0.5
S. aureus DH-432
  MIC: 0.187 ± 0.1 µg/mL (≈ 0.553 µM)
  MBC/MIC: 0.5
S. aureus biofilm
  Biofilm Eradication %: 80% and 80 ± 0.63%
P. aeruginosa biofilm
  Biofilm Eradication %: 76% and 76 ± 0.52%
P. aeruginosa DH-5698
  MIC: 0.375 ± 0.4 µg/mL (≈ 1.11 µM)
  MBC/MIC: 0.5
P. aeruginosa
  QS signal diffusion zone: 8.7 mm
S. aureus
  QS signal diffusion zone: 6.5 mm
E. coli DH-5987
  MBC/MIC: 0.5
  MIC: 0.25 ± 0.1 µg/mL (≈ 0.739 µM)
A. baumannii DH-243
  MIC: 0.5 ± 0.1 µg/mL (≈ 1.48 µM)
  MBC/MIC: 0.5

## CCOC(=O)c1ccc(N=Nc2c(N)nn3c(N)c(C#N)c(-c4ccc(N(C)C)cc4)nc23)cc1 [Compound 9a, Ethyl-4-((2,7-diamino-6-cyano-5-(4-(dimethylamino)phenyl)pyrazolo[1,5-a]pyrimidin-3-yl)diazenyl)benzoate]
C. violaceum CV026
  Concentration at which anti-QS activity (visible halo zone) was observed: 0.187 µg/mL
hCA-I
  IC50: 123 nM
  Ki: 102 nM
hCA-II
  IC50: 142 nM
  Ki: 136 nM
S. pyogenes DH-3467
  MIC: 0.25 ± 0.2 µg/mL (≈ 0.532 µM)
  MBC/MIC: 0.5
E. faecalis DH-5478
  MIC: 0.5 ± 0.1 µg/mL (≈ 1.06 µM)
  MBC/MIC: 0.5
S. aureus DH-432
  MIC: 0.25 ± 0.2 µg/mL (≈ 0.532 µM)
  MBC/MIC: 0.5
S. aureus biofilm
  Biofilm Eradication %: 72% and 72 ± 0.81%
P. aeruginosa biofilm
  Biofilm Eradication %: 66% and 66 ± 0.9%
P. aeruginosa DH-5698
  MIC: 0.375 ± 0.3 µg/mL (≈ 0.799 µM)
  MBC/MIC: 0.5
P. aeruginosa
  QS signal diffusion zone: 9.5 mm
S. aureus
  QS signal diffusion zone: 6.9 mm
E. coli DH-5987
  MIC (Mean ± SEM): 0.125 ± 0.1 µg/mL (≈ 0.266 µM)
  MBC/MIC: 0.5
  MBC: 0.0625 µg/mL (≈ 0.133 µM)
  MIC: 0.125 µg/mL (≈ 0.266 µM)
A. baumannii DH-243
  MIC: 0.375 ± 0.2 µg/mL (≈ 0.799 µM)
  MBC/MIC: 0.5

## CCOC(=O)c1ccc(N=Nc2c(N)nn3c(O)c(C#N)c(-c4ccc(N(C)C)cc4)nc23)cc1 [Compound 10a, Ethyl-4-((2-amino-6-cyano-5-(4-(dimethylamino)phenyl)-7-hydroxypyrazolo[1,5-a]pyrimidin-3-yl)diazenyl)benzoate]
C. violaceum CV026
  Concentration at which anti-QS activity (visible halo zone) was observed: 0.0625 µg/mL
hCA-I
  IC50: 153 nM
  Ki: 144 nM
hCA-II
  IC50: 122 nM
  Ki: 139 nM
S. pyogenes DH-3467
  MIC: 0.187 ± 0.2 µg/mL (≈ 0.397 µM)
  MBC/MIC: 0.5
E. faecalis DH-5478
  MIC: 0.187 ± 0.1 µg/mL (≈ 0.397 µM)
  MBC/MIC: 0.5
S. aureus DH-432
  MIC: 0.125 ± 0.2 µg/mL (≈ 0.266 µM)
  MBC/MIC: 0.5
P. aeruginosa biofilm
  Biofilm Eradication %: 80% and > 80%
P. aeruginosa DH-5698
  MIC: 0.187 ± 0.1 µg/mL (≈ 0.397 µM)
  MBC/MIC: 0.5
P. aeruginosa
  QS signal diffusion zone: 8.0 mm
S. aureus
  QS signal diffusion zone: 6.2 mm
E. coli DH-5987
  MIC (Mean ± SEM): 0.125 ± 0.2 µg/mL (≈ 0.266 µM)
  MBC: 0.0625 µg/mL (≈ 0.133 µM)
  MIC: 0.125 µg/mL (≈ 0.266 µM)
A. baumannii DH-243
  MIC: 0.375 ± 0.4 µg/mL (≈ 0.797 µM)
  MBC/MIC: 0.5
